Laboratory results as given in patent US7465727B2, “(1,10B-dihydro-2-(aminoalkyl-phenyl)-5H-pyrazolo[1,5-c][1,3]Benzoxazin-5-yl)phenyl methanone derivatives as HIV viral replication inhibitors” (priority 2005, dated 2008).
Where two headings read alike, the source gives them in different places.

Legend:
[1] = tested on: multi-drug resistant HIV-1 virus (HIV-1-MDR); assay: microbe, parasite or virus in culture; type: cell-based; details: for Activity class for HIV-1-MDR test (pEC50 values): MT4-LTR-EGFP cells, three days incubation, GFP signal, average where more than one run
Method: (§1) The compounds were tested in a cellular assay using the MT4-LTR-EGFP cells for anti-viral activity. […] The cellular assay was performed according to the following procedure.
(§2) HIV- or mock-infected MT4-LTR-EGFP cells were incubated for three days in the presence of various concentrations of the inhibitor. Upon infection, the GFP reporter is activated by the viral tat protein. At the end of the incubation period, the GFP signal was measured. In the virus control samples (in the absence of any inhibitor) the maximal fluorescent signal was obtained. The inhibitory activity of the compound was monitored on the virus-infected cells and was expressed as EC50 and EC90. These values represent the amount of the compound required to protect 50% and 90%, respectively, of the cells from virus infection.

[2] = tested on: wild type laboratory HIV strain (HIV-1 strain LAI); assay: microbe, parasite or virus in culture; type: cell-based
Method: as §1, §2

[3] = MT4-LTR-EGFP cells, three days incubation, GFP signal, average where more than one run

Row | Compound | Activity class for HIV-1-MDR test (pEC50 values) [1] | Activity class for HIV-1-LAI test (pEC50 values) [2, 3] | EC50 ([1]; Human immunodeficiency virus 1, 72 h, read-out: Activity class for HIV-1-MDR test (pEC50 values) (converted)) [nM] | EC50 ([2]; Human immunodeficiency virus 1, 72 h, MT4-LTR-EGFP cells, three days incubation, GFP signal, average where more than one run, read-out: Activity class for HIV-1-LAI test (pEC50 values) (converted)) [nM] | Activity class for HIV-1-LAI test (pEC50 values) [2]
1 | N#Cc1ccc(C(=O)C2Oc3ccccc3C3CC(c4ccc(CNCc5ccccn5)cc4)=NN23)cc1 (stereo not drawn) [Compound 6] | 7.28 | 7.13 |  |  | 
2 | CN(Cc1ccc(C2=NN3C(C(=O)c4ccc(C#N)cc4)Oc4ccccc4C3C2)cc1)C1CCCC1 (stereo not drawn) [Compound 13] | 8.62 | 8.32 |  |  | 
3 | N#Cc1ccc(C(=O)C2Oc3ccccc3C3CC(c4ccc(CCCNCc5ccccc5)cc4)=NN23)cc1 (stereo not drawn) [Compound 17] | 5.37 | 5.56 |  |  | 
4 | CCN(CC)Cc1ccc(C2=NN3C(C(=O)c4ccc(C#N)cc4)Oc4ccccc4C3C2)cc1 (stereo not drawn) [Compound 1, 4-[4-(4-cyano-benzoyl)-1,9b-dihydro-5-oxa-3,3a-diaza-cyclopenta[a]naphthalen-2-yl]-N,N-diethyl-benzylamine] |  |  | 8.71 | 19.1 | 
5 | CCN(CC)Cc1ccc(C2=NN3C(C(=O)c4ccc(S(C)(=O)=O)cc4)Oc4ccccc4C3C2)cc1 (stereo not drawn) [Compound 30] | 7.95 | 7.9 |  |  | 
6 | N#Cc1ccc(C(=O)C2Oc3ccccc3C3CC(c4ccc(CCCNCc5ccccn5)cc4)=NN23)cc1 (stereo not drawn) [Compound 31] | 5.38 | 4.85 |  |  | 
7 | CN(C)CCN(C)Cc1ccc(C2=NN3C(C(=O)c4ccc(C#N)cc4)Oc4ccccc4C3C2)cc1 (stereo not drawn) [Compound 4] | 6.25 | 6.41 |  |  | 
8 | COc1ccc(CN(C)Cc2ccc(C3=NN4C(C(=O)c5ccc(S(C)(=O)=O)cc5)Oc5ccccc5C4C3)cc2)cc1 (stereo not drawn) [Compound 29] | 8.56 | 8.47 |  |  | 
9 | CCN(CC)Cc1ccc(C2=NN3C(C(=O)c4ccc(C(C)(C)C)cc4)Oc4ccccc4C3C2)cc1 (stereo not drawn) [Compound 11] | 7.59 | 7.64 |  |  | 
10 | CN(C)CCCc1ccc(C2=NN3C(C(=O)c4ccc(C#N)cc4)Oc4ccccc4C3C2)cc1 (stereo not drawn) [Compound 16] | 5.51 |  |  |  | 5.6
11 | CN(C)CCN(C)CCCc1ccc(C2=NN3C(C(=O)c4ccc(C#N)cc4)Oc4ccccc4C3C2)cc1 (stereo not drawn) [Compound 15] | 5.52 | 5.42 |  |  | 
12 | CN(Cc1ccc(C2=NN3C(C(=O)c4ccc(C#N)cc4)Oc4ccccc4C3C2)cc1)Cc1ccc(N(C)C)cc1 (stereo not drawn) [Compound 36] | 7.18 | 7.45 |  |  | 
13 | COc1ccc(CN(C)CCCCc2ccc(C3=NN4C(C(=O)c5ccc(C#N)cc5)Oc5ccccc5C4C3)cc2)cc1 (stereo not drawn) [Compound 23] | 5.32 | 5.38 |  |  | 
14 | COc1ccc(NCCCCc2ccc(C3=NN4C(C(=O)c5ccc(C#N)cc5)Oc5ccccc5C4C3)cc2)cc1 (stereo not drawn) [Compound 20] | 6.51 |  |  |  | 7.42
15 | COc1ccc(NCCCc2ccc(C3=NN4C(C(=O)c5ccc(C#N)cc5)Oc5ccccc5C4C3)cc2)cc1 (stereo not drawn) [Compound 14] | 6.34 |  |  |  | 6.41
16 | COc1ccc(CN(C)CCCc2ccc(C3=NN4C(C(=O)c5ccc(C#N)cc5)Oc5ccccc5C4C3)cc2)cc1 (stereo not drawn) [Compound 25] | 5.04 | 6.53 |  |  | 
17 | CN(CCCc1ccc(C2=NN3C(C(=O)c4ccc(C#N)cc4)Oc4ccccc4C3C2)cc1)C1CCCC1 (stereo not drawn) [Compound 35] | 5.81 | 5.76 |  |  | 

Row | Compound | Activity class for HIV-1-MDR test (pEC50 values) [1] | Activity class for HIV-1-LAI test (pEC50 values) [2, 3] | EC50 ([1]; Human immunodeficiency virus 1, 72 h, read-out: Activity class for HIV-1-MDR test (pEC50 values) (converted)) [nM] | EC50 ([2]; Human immunodeficiency virus 1, 72 h, MT4-LTR-EGFP cells, three days incubation, GFP signal, average where more than one run, read-out: Activity class for HIV-1-LAI test (pEC50 values) (converted)) [nM] | Activity class for HIV-1-LAI test (pEC50 values) [2]
18 | COc1ccc(CN(C)CCc2ccc(C3=NN4C(C(=O)c5ccc(C#N)cc5)Oc5ccccc5C4C3)cc2)cc1 (stereo not drawn) [Compound 32] | 6.72 | 7.08 |  |  | 
19 | N#Cc1ccc(C(=O)C2Oc3ccccc3C3CC(c4ccc(CCCCNCc5ccccn5)cc4)=NN23)cc1 (stereo not drawn) [Compound 26] | 4.86 | 5.28 |  |  | 
20 | CCN(CC)CCCCc1ccc(C2=NN3C(C(=O)c4ccc(C#N)cc4)Oc4ccccc4C3C2)cc1 (stereo not drawn) [Compound 19] | 5.43 | 5.39 |  |  | 
21 | N#Cc1ccc(C(=O)C2Oc3ccccc3C3CC(c4ccc(CCCCNCc5ccccc5)cc4)=NN23)cc1 (stereo not drawn) [Compound 18] | 5.47 |  |  |  | 5.47
22 | COc1ccc(CN(C)Cc2ccc(C3=NN4C(C(=O)c5ccc(C#N)cc5)Oc5ccccc5C4C3)cc2)cc1 (stereo not drawn) [Compound 8] | 7.85 | 7.81 |  |  | 
23 | CN(C)CCN(C)CCCCc1ccc(C2=NN3C(C(=O)c4ccc(C#N)cc4)Oc4ccccc4C3C2)cc1 (stereo not drawn) [Compound 22] | 5.47 | 5.52 |  |  | 
24 | CN(CCCCc1ccc(C2=NN3C(C(=O)c4ccc(C#N)cc4)Oc4ccccc4C3C2)cc1)C1CCCC1 (stereo not drawn) [Compound 27] | 5.15 | 5.36 |  |  | 
25 | N#Cc1ccc(C(=O)C2Oc3ccccc3C3CC(c4ccc(CCNCc5ccccc5)cc4)=NN23)cc1 (stereo not drawn) [Compound 33] | 6.07 | 6.35 |  |  | 
26 | CN(C)c1ccc(CNCc2ccc(C3=NN4C(C(=O)c5ccc(C#N)cc5)Oc5ccccc5C4C3)cc2)cc1 (stereo not drawn) [Compound 37] | 6.31 | 6.12 |  |  | 
27 | CCN(CC)CCc1ccc(C2=NN3C(C(=O)c4ccc(C#N)cc4)Oc4ccccc4C3C2)cc1 (stereo not drawn) [Compound 12] | 7.35 | 7.16 |  |  | 
28 | COc1ccc(NCc2ccc(C3=NN4C(C(=O)c5ccc(C#N)cc5)Oc5ccccc5C4C3)cc2)cc1 (stereo not drawn) [Compound 5] | 6.5 |  |  |  | 6.22
29 | N#Cc1ccc(C(=O)C2Oc3ccccc3C3CC(c4ccc(CCCCNCc5ccncc5)cc4)=NN23)cc1 (stereo not drawn) [Compound 21] | 5.2 | 5.23 |  |  | 
30 | CN(C)CCN(C)CCc1ccc(C2=NN3C(C(=O)c4ccc(C#N)cc4)Oc4ccccc4C3C2)cc1 (stereo not drawn) [Compound 34] | 6.12 | 6.25 |  |  | 
31 | N#Cc1ccc(C(=O)C2Oc3ccccc3C3CC(c4ccc(CNCc5ccccc5)cc4)=NN23)cc1 (stereo not drawn) [Compound 2] | 7.83 | 7.58 |  |  | 
32 | COc1ccc(CN(C)Cc2ccc(C3=NN4C(C(=O)c5ccc(C(C)(C)C)cc5)Oc5ccccc5C4C3)cc2)cc1 (stereo not drawn) [Compound 9] | 7 | 7.28 |  |  | 
33 | N#Cc1ccc(C(=O)C2Oc3ccccc3C3CC(c4ccc(CNCCN5CCCC5)cc4)=NN23)cc1 (stereo not drawn) [Compound 7] | 6.49 | 6.55 |  |  | 
